Results reported in US20240116910A1, “Heterocycles as WIP1 Inhibitors” (PMV Pharmaceuticals, Inc., priority 2022, published 2024).

Target: recombinant His-tag Wip1(2-420) protein (amino acids #2-420) (Homo sapiens (Human), UniProt O15297)
Assay: Wip1(2-420) phosphatase enzyme FDP assay
Format: biochemical
Conditions: fluorescein diphosphate (FDP) substrate, RT 2 hours, fluorescence Ex485/Em535; read-out: WIP1 (Truncated 2-420) FDP Assay: IC50

Chain of recombinant His-tag Wip1(2-420) protein (amino acids #2-420) (O15297 2-420): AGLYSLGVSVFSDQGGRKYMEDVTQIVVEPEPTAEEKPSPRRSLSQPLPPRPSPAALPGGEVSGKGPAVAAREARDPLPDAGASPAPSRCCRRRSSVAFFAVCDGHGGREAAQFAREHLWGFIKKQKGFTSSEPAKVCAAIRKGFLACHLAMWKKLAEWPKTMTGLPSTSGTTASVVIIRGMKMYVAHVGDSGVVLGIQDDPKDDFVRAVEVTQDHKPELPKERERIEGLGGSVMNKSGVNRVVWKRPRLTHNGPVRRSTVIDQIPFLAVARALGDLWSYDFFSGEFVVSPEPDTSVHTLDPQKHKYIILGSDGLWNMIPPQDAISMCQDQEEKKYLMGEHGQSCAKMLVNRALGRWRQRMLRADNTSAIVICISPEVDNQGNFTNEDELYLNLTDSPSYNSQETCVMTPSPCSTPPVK

First: C[C@@H](Nc1cc(Cl)cnc1-c1cccnc1)c1ccc(C(=O)N[C@@H](CC2CCCC2)C(=O)NC2CC2)s1 [Compound 233, (2S)-2-({5-[(1R)-1-({5-chloro-[2,3′-bipyridin]-3-yl}amino)ethyl]thiophen-2-yl}formamido)-3-cyclopentyl-N-cyclopropylpropanamide]
Second: COc1ccc(-c2ncc(Cl)cc2N[C@@H](C)c2ccc(C(=O)N[C@@H](CC3CCCC3)C(=O)NC3CC3)s2)cc1 [Compound 236, (2S)-2-({5-[(1S)-1-{[5-chloro-2-(4-methoxyphenyl)pyridin-3-yl]amino}ethyl]thiophen-2-yl}formamido)-3-cyclopentyl-N-cyclopropylpropanamide]
The IC50 of the first is 42-fold higher: 293 nM for the first, 7 nM for the second.

First: Cc1ncc(Cl)cc1N[C@@H](C)c1ccc(C(=O)N[C@@H](C(=O)NC2CC2)C(C)(C)C)s1 [Compound 234, (2R)-2-({5-[(1S)-1-[(5-chloro-2-methylpyridin-3-yl)amino]ethyl]thiophen-2-yl}formamido)-N-cyclopropyl-3,3-dimethylbutanamide]
Second: Cc1ncc(Cl)cc1N[C@@H](C)c1ccc(C(=O)N[C@H](C(=O)NC2CC2)C(C)(C)C)s1 [Compound 235, (2S)-2-({5-[(1S)-1-[(5-chloro-2-methylpyridin-3-yl)amino]ethyl]thiophen-2-yl}formamido)-N-cyclopropyl-3,3-dimethylbutanamide]
The IC50 of the first is higher: > 10000 nM for the first, 5660 nM for the second. The second is the more potent here.

`Cc1ncc(Cl)cc1N[C@@H](C)c1ccc(C(=O)N[C@@H](CC2CCCC2)C(=O)NC2CC3(COC3)C2)s1` [Compound 237, (2S)-2-({5-[(1S)-1-[(5-chloro-2-methylpyridin-3-yl)amino]ethyl]thiophen-2-yl}formamido)-3-cyclopentyl-N-{2-oxaspiro[3.3]heptan-6-yl}propanamide] and `Cc1ncc(Cl)cc1N[C@@H](C)c1ccc(C(=O)N[C@@H](CC2CCCC2)C(=O)N[C@@H]2CC[C@H](F)C2)s1` [Compound 258, (2S)-2-({5-[(1S)-1-[(5-chloro-2-methylpyridin-3-yl)amino]ethyl]thiophen-2-yl}formamido)-3-cyclopentyl-N-[(1R,3S)-3-fluorocyclopentyl]propanamide] are within 1.5-fold of each other in IC50: 8 nM for the first, 7 nM for the second.

First: COc1ccc(-c2ncc(Cl)cc2N[C@H](C)c2ccc(C(=O)N[C@@H](CC3CCCC3)C(=O)NC3CC3)s2)cc1 [Compound 238, (2S)-2-({5-[(1R)-1-{[5-chloro-2-(4-methoxyphenyl)pyridin-3-yl]amino}ethyl]thiophen-2-yl}formamido)-3-cyclopentyl-N-cyclopropylpropanamide]
Second: COc1ccccc1-c1ncc(Cl)cc1N[C@H](C)c1ccc(C(=O)N[C@@H](CC2CCCC2)C(=O)NC2CC2)s1 [Compound 241, (2S)-2-({5-[(1R)-1-{[5-chloro-2-(2-methoxyphenyl)pyridin-3-yl]amino}ethyl]thiophen-2-yl}formamido)-3-cyclopentyl-N-cyclopropylpropanamide]
The IC50 of the first is 1.8-fold lower: 188 nM for the first, 330 nM for the second.

Compared with `C[C@@H](c1ccc(C(=O)N[C@@H](CC2CCCC2)C(=O)NC2CC2)s1)N1CCN(C)c2ccc(Cl)cc21` [Compound 239, (2S)-2-({5-[(1S)-1-(7-chloro-4-methyl-1,2,3,4-tetrahydroquinoxalin-1-yl)ethyl]thiophen-2-yl}formamido)-3-cyclopentyl-N-cyclopropylpropanamide], `C[C@H](c1ccc(C(=O)N[C@@H](CC2CCCC2)C(=O)NC2CC2)s1)N1CCN(C)c2ccc(Cl)cc21` [Compound 240, (2S)-2-({5-[(1R)-1-(7-chloro-4-methyl-1,2,3,4-tetrahydroquinoxalin-1-yl)ethyl]thiophen-2-yl}formamido)-3-cyclopentyl-N-cyclopropylpropanamide] is 4.1-fold higher in IC50: 38 nM for the first, 154 nM for the second.

Going from `COc1ccccc1-c1ncc(Cl)cc1N[C@@H](C)c1ccc(C(=O)N[C@@H](CC2CCCC2)C(=O)NC2CC2)s1` [Compound 242, (2S)-2-({5-[(1S)-1-{[5-chloro-2-(2-methoxyphenyl)pyridin-3-yl]amino}ethyl]thiophen-2-yl}formamido)-3-cyclopentyl-N-cyclopropylpropanamide] to `COc1ccc(Cl)cc1N[C@@H](C)c1ccc(C(=O)N[C@@H](CC2CCCC2)C(=O)NC2CC2)s1` [Compound 254, (2S)-2-({5-[(1S)-1-[(5-chloro-2-methoxyphenyl)amino]ethyl]thiophen-2-yl}formamido)-3-cyclopentyl-N-cyclopropylpropanamide], the IC50 rises from 7 nM to 11 nM (1.6-fold). The first is the more potent here.

Compared with `Cc1ncc(Cl)cc1N[C@@H](C)c1ccc(C(=O)N[C@@H](CC2CCCC2)C(=O)Nc2ccc3ncccc3c2)s1` [Compound 243, (2S)-2-({5-[(1S)-1-[(5-chloro-2-methylpyridin-3-yl)amino]ethyl]thiophen-2-yl}formamido)-3-cyclopentyl-N-(quinolin-6-yl)propanamide], `Cc1cc(NC(=O)[C@H](CC2CCCCC2)NC(=O)c2ccc([C@H](C)Nc3cc(Cl)cnc3C)s2)ccn1` [Compound 252, (2S)-2-({5-[(1S)-1-[(5-chloro-2-methylpyridin-3-yl)amino]ethyl]thiophen-2-yl}formamido)-3-cyclohexyl-N-(2-methylpyridin-4-yl)propanamide] is 2-fold higher in IC50: 4 nM for the first, 8 nM for the second. The first is the more potent here.

Compared with `Cc1ncc(Cl)cc1N[C@@H](C)c1ccc(C(=O)N[C@@H](C[C@H]2CCC3CC32)C(=O)NC23CC(C2)C3)s1` (stereo partly drawn) [Compound 244, (2S)-N-{bicyclo[1.1.1]pentan-1-yl}-3-[(2R)-bicyclo[3.1.0]hexan-2-yl]-2-({5-[(1S)-1-[(5-chloro-2-methylpyridin-3-yl)amino]ethyl]thiophen-2-yl}formamido)propanamide], `Cc1ncc(Cl)cc1N[C@@H](C)c1ccc(C(=O)N[C@@H](C[C@@H]2CCC3CC32)C(=O)NC23CC(C2)C3)s1` (stereo partly drawn) [Compound 245, (2S)-N-{bicyclo[1.1.1]pentan-1-yl}-3-[(2S)-bicyclo[3.1.0]hexan-2-yl]-2-({5-[(1S)-1-[(5-chloro-2-methylpyridin-3-yl)amino]ethyl]thiophen-2-yl}formamido)propanamide] is 2-fold higher in IC50: 5 nM for the first, 10 nM for the second. The first is the more potent here.

First: Cc1ncc(Cl)cc1N[C@@H](C)c1ccc(C(=O)N[C@H](C(=O)NC23CC(C2)C3)C(C)(C)C)s1 [Compound 246, (2S)-N-{bicyclo[1.1.1]pentan-1-yl}-2-({5-[(1S)-1-[(5-chloro-2-methylpyridin-3-yl)amino]ethyl]thiophen-2-yl}formamido)-3,3-dimethylbutanamide]
Second: Cc1ncc(Cl)cc1N[C@@H](C)c1ccc(C(=O)N[C@@H](C(=O)NC23CC(C2)C3)C(C)(C)C)s1 [Compound 247, (2R)-N-{bicyclo[1.1.1]pentan-1-yl}-2-({5-[(1S)-1-[(5-chloro-2-methylpyridin-3-yl)amino]ethyl]thiophen-2-yl}formamido)-3,3-dimethylbutanamide]
The IC50 of the first is lower: 2210 nM for the first, > 10000 nM for the second.

Compared with `C[C@@H](c1ccc(C(=O)N[C@@H](CC2CCCC2)C(=O)NC2CC2)s1)N1CCCc2ccc(Cl)cc21` [Compound 248, (2S)-2-({5-[(1S)-1-(7-chloro-1,2,3,4-tetrahydroquinolin-1-yl)ethyl]thiophen-2-yl}formamido)-3-cyclopentyl-N-cyclopropylpropanamide], `C[C@H](c1ccc(C(=O)N[C@@H](CC2CCCC2)C(=O)NC2CC2)s1)N1CCCc2ccc(Cl)cc21` [Compound 249, (2S)-2-({5-[(1R)-1-(7-chloro-1,2,3,4-tetrahydroquinolin-1-yl)ethyl]thiophen-2-yl}formamido)-3-cyclopentyl-N-cyclopropylpropanamide] is 9.8-fold higher in IC50: 16 nM for the first, 156 nM for the second.

First: O=C(N[C@@H](CC1CCCC1)C(=O)NC1CC1)c1ccc([C@@H]2CCc3c(Cl)cccc3N2)s1 [Compound 250, (2S)-2-({5-[(2S)-5-chloro-1,2,3,4-tetrahydroquinolin-2-yl]thiophen-2-yl}formamido)-3-cyclopentyl-N-cyclopropylpropanamide]
Second: O=C(N[C@@H](CC1CCCC1)C(=O)NC1CC1)c1ccc([C@H]2CCc3c(Cl)cccc3N2)s1 [Compound 251, (2S)-2-({5-[(2R)-5-chloro-1,2,3,4-tetrahydroquinolin-2-yl]thiophen-2-yl}formamido)-3-cyclopentyl-N-cyclopropylpropanamide]
The IC50 of the first is 2.3-fold lower: 301 nM for the first, 678 nM for the second.

First: Cc1ncc(Cl)cc1N[C@@H](C)c1ccc(C(=O)NC2Cc3ccccc3NC2=O)s1 (stereo partly drawn) [Compound 253, 5-[(1S)-1-[(5-chloro-2-methylpyridin-3-yl)amino]ethyl]-N-(2-oxo-1,2,3,4-tetrahydroquinolin-3-yl)thiophene-2-carboxamide]
Second: Cc1ncc(Cl)cc1N[C@@H](C)c1ccc(C(=O)N[C@H](CC23CCC(CC2)CC3)C(=O)NC2CC2)s1 [Compound 255, (2R)-3-{bicyclo[2.2.2]octan-1-yl}-2-({5-[(1S)-1-[(5-chloro-2-methylpyridin-3-yl)amino]ethyl]thiophen-2-yl}formamido)-N-cyclopropylpropanamide]
The IC50 of the first is higher: > 10000 nM for the first, 4870 nM for the second. The second is the more potent here.

`Cc1ncc(Cl)cc1N[C@@H](C)c1ccc(C(=O)N[C@@H](CC23CCC(CC2)CC3)C(=O)NC2CC2)s1` [Compound 256, (2S)-3-{bicyclo[2.2.2]octan-1-yl}-2-({5-[(1S)-1-[(5-chloro-2-methylpyridin-3-yl)amino]ethyl]thiophen-2-yl}formamido)-N-cyclopropylpropanamide] and `Cc1ncc(Cl)cc1N[C@@H](C)c1ccc(C(=O)N[C@@H](CC2CCCC2)C(=O)NC23CCC(CC2)CC3)s1` [Compound 257, (2S)-N-{bicyclo[2.2.2]octan-1-yl}-2-({5-[(1S)-1-[(5-chloro-2-methylpyridin-3-yl)amino]ethyl]thiophen-2-yl}formamido)-3-cyclopentylpropanamide] are within 1.5-fold of each other in IC50: 6 nM for the first, 8 nM for the second.

Going from `C[C@@H](Nc1cc(Cl)nc2ccnn12)c1ccc(C(=O)N[C@@H](CC2CCCC2)C(=O)NC2CC2)s1` [Compound 259, (2S)-2-({5-[(1R)-1-({5-chloropyrazolo[1,5-a]pyrimidin-7-yl}amino)ethyl]thiophen-2-yl}formamido)-3-cyclopentyl-N-cyclopropylpropanamide] to `C[C@H](Nc1cc(Cl)nc2ccnn12)c1ccc(C(=O)N[C@@H](CC2CCCC2)C(=O)NC2CC2)s1` [Compound 260, (2S)-2-({5-[(1S)-1-({5-chloropyrazolo[1,5-a]pyrimidin-7-yl}amino)ethyl]thiophen-2-yl}formamido)-3-cyclopentyl-N-cyclopropylpropanamide], the IC50 rises from 13 nM to 210 nM (16-fold). The first is the more potent here.
